In ChEMBL document CHEMBL5346923, “Novel pyridinium cationic pleuromutilin analogues overcoming bacterial multidrug resistance” (Eur J Med Chem, 2023):

Experiments:
Type in all cases: functional
Staphylococcus aureus [1] = assay: Antibacterial activity against methicillin-resistant Staphylococcus aureus ATCC 43300 assessed as inhibition of bacterial growth measured after 24 hrs by MH broth based assay
Staphylococcus aureus [2] = assay: Antibacterial activity against Staphylococcus aureus ATCC 29213 assessed as inhibition of bacterial growth measured after 24 hrs by MH broth based assay
Escherichia coli [3] = assay: Antibacterial activity against Escherichia coli MG1655 harbouring acrB gene assessed as inhibition of bacterial growth measured after 24 hrs by MH broth based assay
[4] = test system: Staphylococcus epidermidis; assay: Antibacterial activity against methicillin-resistant Staphylococcus epidermidis ATCC 51625 assessed as inhibition of bacterial growth measured after 24 hrs by MH broth based assay
Escherichia coli [5] = assay: Antibacterial activity against Escherichia coli ATCC 25922 assessed as inhibition of bacterial growth measured after 24 hrs by MH broth based assay
Bacillus subtilis = assay: Antibacterial activity against Bacillus subtilis ATCC 6633 assessed as inhibition of bacterial growth measured after 24 hrs by MH broth based assay
Streptococcus pneumoniae = assay: Antibacterial activity against Streptococcus pneumoniae ATCC 49619 assessed as inhibition of bacterial growth measured after 24 hrs by MH broth based assay
Proteus = assay: Antibacterial activity against Proteus CMCC (B) 49027 assessed as inhibition of bacterial growth measured after 24 hrs by MH broth based assay
Enterococcus = assay: Antibacterial activity against vancomycin-resistant Enterococcus ATCC 700221 assessed as inhibition of bacterial growth measured after 24 hrs by MH broth based assay
Escherichia coli [6] = assay: Antibacterial activity against Escherichia coli MG1655 assessed as inhibition of bacterial growth measured after 24 hrs by MH broth based assay
Klebsiella pneumoniae = assay: Antibacterial activity against Klebsiella pneumonia CMCC (B) 46117 assessed as inhibition of bacterial growth measured after 24 hrs by MH broth based assay

Structure (SMILES)	MIC (Staphylococcus aureus [1]) [µg/mL]	MIC (Staphylococcus aureus [2]) [µg/mL]	MIC (Escherichia coli [3]) [µg/mL]	MIC [4] [µg/mL]	MIC (Escherichia coli [5]) [µg/mL]	MIC (Bacillus subtilis) [µg/mL]	MIC (Streptococcus pneumoniae) [µg/mL]	MIC (Proteus) [µg/mL]	MIC (Enterococcus) [µg/mL]	MIC (Escherichia coli [6]) [µg/mL]	MIC (Klebsiella pneumoniae) [µg/mL]
C=C[C@]1(C)C[C@@H](OC(=O)CSc2cc[n+](CC(=O)N3CCC(CO)CC3)cc2)[C@]2(C)[C@H](C)CC[C@]3(CCC(=O)[C@H]32)[C@@H](C)[C@@H]1O.[I-]	2	2	16	4	64	64	2	> 64	64	64	64
C=C[C@]1(C)C[C@@H](OC(=O)CSc2cc[n+](CCCCCCCCCC(=O)O)cc2)[C@]2(C)[C@H](C)CC[C@]3(CCC(=O)[C@H]32)[C@@H](C)[C@@H]1O.[I-]	4	4	32	2	> 64	> 64	1	> 64	64	> 64	> 64
C#CCC[n+]1ccc(SCC(=O)O[C@@H]2C[C@@](C)(C=C)[C@@H](O)[C@H](C)[C@]34CCC(=O)[C@H]3[C@@]2(C)[C@H](C)CC4)cc1.[I-]	0.5	0.5	1	0.25	64	64	0.125	> 64	64	64	64
C=C[C@]1(C)C[C@@H](OC(=O)CSc2cc[n+](CCCO)cc2)[C@]2(C)[C@H](C)CC[C@]3(CCC(=O)[C@H]32)[C@@H](C)[C@@H]1O.[I-]	1	1	0.5	0.5	64	64	0.25	> 64	64	64	32
